From PMC12270681 (The Journal of Biological Chemistry, 2025) come the findings set out here.

Values joined by “and” are separate entries in the source; they are usually repeats but may differ in a detail not shown here. Equal entries are not always repeated.

Experiment [1] addresses T1, Cb-cParM (Clostridium botulinum, UniProt A0A9Y2YAC8).
T1 construct: gene EXN02_10840
The conditions noted are these: polymerised with 3 mM ATP, 30 min; Mg2+; pH 7.5; 25 °C; nucleotide hydrolysed to ADP in the filament.

In experiment [2] the target is T2, Dh-cParM1 (Desulfitobacterium hafniense, UniProt Q24VP4).
T2 sequence (Q24VP4 1-369): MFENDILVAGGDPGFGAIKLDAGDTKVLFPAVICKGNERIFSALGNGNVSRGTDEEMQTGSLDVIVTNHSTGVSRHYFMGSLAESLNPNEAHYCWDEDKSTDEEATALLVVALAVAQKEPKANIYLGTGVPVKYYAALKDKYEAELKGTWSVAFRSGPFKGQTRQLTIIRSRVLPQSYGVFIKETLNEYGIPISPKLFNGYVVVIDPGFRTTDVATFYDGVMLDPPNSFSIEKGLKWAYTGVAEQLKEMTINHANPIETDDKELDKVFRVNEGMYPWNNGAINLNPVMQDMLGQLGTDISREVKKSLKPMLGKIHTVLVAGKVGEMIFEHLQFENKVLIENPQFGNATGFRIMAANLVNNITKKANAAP
Description: cryo-EM structure of filament ([…] A). The experiment is classed as binding. Further details: gene DSY2109; synthetic gene, N- or C-side 8xHis tag with HRV 3C site, tag cut; E. coli BL21(DE3); polymerises into helical filaments. The following applies: polymerised with 5 mM ATP; 40 mM HEPES pH 7.5, 400 mM KCl, 1 mM MgCl2; nucleotide state not unambiguous, ADP fits better.

Experiment [3] concerns the target T2, Dh-cParM1. Further details: gene DSY2109. The conditions noted are these: 5 mM nucleotide (sedimentation); pH 7.5, Mg2+, 24 °C.
Experiment [4] concerns the target T1, Cb-cParM. The conditions noted are these: polymerised with 3 mM GTP, 30 min, class 1; Mg2+; pH 7.5; 25 °C; nucleotide hydrolysed to GDP in the filament.
For experiment [5], the target named is T1, Cb-cParM. The following applies: class 2 (30 min) and 1 min with 3 mM GTP; Mg2+; pH 7.5; 25 °C; low resolution, nucleotide likely GTP or GDP-Pi.
The target in experiment [6] is T2, Dh-cParM1. The experiment in a line: polymerisation by sedimentation, EM. The following applies: 5 mM nucleotide (sedimentation); pH 7.5, Mg2+, 24 °C. Further details: gene DSY2109; synthetic gene, N- or C-side 8xHis tag with HRV 3C site, tag cut; E. coli BL21(DE3); polymerises into helical filaments. The experiment is classed as binding.
Experiment [7] has as its target Dh-cParM1, chromosome-encoded ParM of the Desulfitobacterium hafniense Y51 Dh-cParMR-1 cassette (Desulfitobacterium hafniense Y51). The experiment in a line: co-sedimentation.

T1 sequence (A0A9Y2YAC8 1-285): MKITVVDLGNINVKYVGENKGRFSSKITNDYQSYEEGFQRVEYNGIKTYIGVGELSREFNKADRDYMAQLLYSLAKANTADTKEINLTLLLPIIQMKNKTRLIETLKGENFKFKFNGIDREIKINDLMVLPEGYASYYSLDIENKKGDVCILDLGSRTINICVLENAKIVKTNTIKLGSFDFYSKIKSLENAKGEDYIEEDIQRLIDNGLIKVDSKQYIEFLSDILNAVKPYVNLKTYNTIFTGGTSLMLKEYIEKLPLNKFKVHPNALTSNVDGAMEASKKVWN

`Nc1ncnc2c1ncn2[C@@H]1O[C@H](COP(=O)(O)OP(=O)(O)O)[C@@H](O)[C@H]1O` [ADP]: the “cryo-EM structure of filament (3.9 A)” value in experiment [1] was “indicating that the bound nucleotides had been hydrolyzed to ADP and GDP, respectively”. In addition, the “cryo-EM structure of filament (4.0 A)” value in experiment [2] was “ADP appears to fit better into the cryoEM density map than ATP”.
With `Nc1ncnc2c1ncn2[C@@H]1O[C@H](COP(=O)(O)OP(=O)(O)OP(=O)(O)O)[C@@H](O)[C@H]1O` [ATP], the “polymerisation by light scattering, sedimentation, EM” value in experiment [3] is “Dh-cParM1 polymerization induced by ATP was followed by light scattering”.
`Nc1nc2c(ncn2[C@@H]2O[C@H](COP(=O)(O)OP(=O)(O)O)[C@@H](O)[C@H]2O)c(=O)[nH]1` [GDP]: the “cryo-EM structure of filament (3.5 A)” value in experiment [4] was “indicating that the bound nucleotides had been hydrolyzed to ADP and GDP, respectively”.
For the molecule `Nc1nc2c(ncn2[C@@H]2O[C@H](COP(=O)(O)OP(=O)(O)OP(=O)(O)O)[C@@H](O)[C@H]2O)c(=O)[nH]1` [GTP], in experiment [5], the “cryo-EM structure of filament (6.5 A and 8.6 A); Pi release also measured” value is reported as “suggesting that they were in the state before the phosphate release”. The “polymerisation by sedimentation, EM” value in experiment [6] was “Filaments were induced by the addition of ATP, GTP, and non-hydrolysable nucleotides”.
On to “Dh-cParM1, chromosome-encoded ParM of the Desulfitobacterium hafniense Y51 Dh-cParMR-1 cassette (natural protein)”, for which the residual concentration in the supernatants (compared with a critical concentration) in experiment [7] is 4 µM and 5 µM.
